# Measured values from patent US7807676B2, “Diketo-Piperazine and Piperidine derivatives as antiviral agents” (priority 2006, dated 2010).
# System: HIV-1 single-round infectious reporter virus
# Assay: Single-round infectious HIV-1 luciferase reporter virus infection of HeLa CD4 cells (antiviral EC50)
# Assay type: cell-based
# Conditions: Human immunodeficiency virus 1, HeLa, read-out: EC50 Group from Table 3
# How it was run: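 Env-pseudotyped single-round HIV-1 reporter virus (env-deleted provirus with luciferase in place of nef, made in 293 cells) infected HeLa CD4 cells at MOI ~0.01 with compound present, up to 10 μM final. Luciferase luminescence read after 72 h at 37 °C; EC50 from four-parameter logistic fit of % inhibition over 10 concentrations.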
row,Compound,EC50
1,COc1cnc(-n2cnc(C)n2)c2[nH]cc(C(=O)C(=O)N3CCN(c4nonc4-c4ccccc4)CC3)c12 [G-1a],< 500 nM
2,O=C(C(=O)N1CCN(c2nonc2-c2ccccc2)CC1)c1c[nH]c2c(-n3ccnn3)ncc(F)c12 [G-1b],< 500 nM
3,COc1cnc(-c2cnc(N3CCN(C)CC3)cn2)c2[nH]cc(C(=O)C(=O)N3CCN(c4nnnn4-c4ccccc4)CC3)c12 [G-2a],< 500 nM
4,COc1cnc(-c2cnc(N3CCOCC3)cn2)c2[nH]cc(C(=O)C(=O)N3CCN(c4nnnn4-c4ccccc4)CC3)c12 [G-2b],< 500 nM
5,COc1cnc(-c2cnc(-n3ccnc3)cn2)c2[nH]cc(C(=O)C(=O)N3CCN(c4nnnn4-c4ccccc4)CC3)c12 [G-2c],< 500 nM
6,COc1cnc(-n2cnc(C)n2)c2[nH]cc(C(=O)C(=O)N3CCN(c4ncccc4-c4ccccc4)CC3)c12 [G-3a],< 500 nM
7,O=C(C(=O)N1CCN(c2ncccc2-c2ccccc2)CC1)c1c[nH]c2c(-n3ccnn3)ncc(F)c12 [G-3b],< 500 nM
8,CN(C)c1nc(N2CCN(C(=O)C(=O)c3c[nH]c4c(-n5ccnn5)ncc(F)c34)CC2)n(-c2ccccc2)n1 [G-4a],< 500 nM
9,COc1cnc(-n2cnc(C)n2)c2[nH]cc(C(=O)C(=O)N3CCN(c4nc(N(C)C)nn4-c4ccccc4)CC3)c12 [G-4b],< 500 nM
10,CN(C)c1nc(N2CCN(C(=O)C(=O)c3c[nH]c4c(-n5ccnn5)ncc(F)c34)CC2)nn1-c1ccccc1 [G-4c],> 500 nM
11,COc1cnc(-n2cnc(C)n2)c2[nH]cc(C(=O)C(=O)N3CCN(c4nc(N(C)C)n(-c5ccccc5)n4)CC3)c12 [G-4d],< 500 nM
12,O=C(C(=O)N1CCN(c2c[nH]nc2-c2ccccc2)CC1)c1c[nH]c2c(-n3ccnn3)ncc(F)c12 [G-5a],< 500 nM
13,COc1cnc(-n2cnc(C)n2)c2[nH]cc(C(=O)C(=O)N3CCN(c4c[nH]nc4-c4ccccc4)CC3)c12 [G-5b],< 500 nM
14,COc1cnc(-n2cnc(C)n2)c2[nH]cc(C(=O)C(=O)N3CCN(c4cn(CCN(C)C)nc4-c4ccccc4)CC3)c12 [G-6a],< 500 nM
15,CN(C)CCn1cc(N2CCN(C(=O)C(=O)c3c[nH]c4c(-n5ccnn5)ncc(F)c34)CC2)c(-c2ccccc2)n1 [G-6b],< 500 nM
16,COc1cnc(-n2cnc(C)n2)c2[nH]cc(C(=O)C(=O)N3CCN(c4cn(Cc5ccccn5)nc4-c4ccccc4)CC3)c12 [G-7a],< 500 nM
17,O=C(C(=O)N1CCN(c2cn(Cc3ccccn3)nc2-c2ccccc2)CC1)c1c[nH]c2c(-n3ccnn3)ncc(F)c12 [G-7b],< 500 nM
18,O=C(C(=O)N1CCN(c2[nH]nnc2-c2ccccc2)CC1)c1c[nH]c2c(-n3ccnn3)ncc(F)c12 [G-8a],< 500 nM
19,COc1cnc(-n2cnc(C)n2)c2[nH]cc(C(=O)C(=O)N3CCN(c4[nH]nnc4-c4ccccc4)CC3)c12 [G-8b],< 500 nM
20,COc1cnc(-n2cnc(C)n2)c2[nH]cc(C(=O)C(=O)N3CCN(c4ccnn4-c4ccccc4)CC3)c12 [G-9a],< 500 nM
21,O=C(C(=O)N1CCN(c2ccnn2-c2ccccc2)CC1)c1c[nH]c2c(-n3ccnn3)ncc(F)c12 [G-9b],< 500 nM
22,O=C(C(=O)N1CCC(N2CCN=C2c2ccccc2)CC1)c1c[nH]c2c(-n3ccnn3)ncc(F)c12 [G-10a],> 500 nM
23,COc1cnc(-n2cnc(C)n2)c2[nH]cc(C(=O)C(=O)N3CCC(N4CCN=C4c4ccccc4)CC3)c12 [G-10b],> 500 nM
24,O=C(C(=O)N1CCC(n2ccnc2-c2ccccc2)CC1)c1c[nH]c2c(-n3ccnn3)ncc(F)c12 [G-11a],< 500 nM
25,COc1cnc(-n2cnc(C)n2)c2[nH]cc(C(=O)C(=O)N3CCC(n4ccnc4-c4ccccc4)CC3)c12 [G-11b],> 500 nM
26,O=C(C(=O)N1CCN(C2=NCCN2c2ccccc2)CC1)c1c[nH]c2c(-n3ccnn3)ncc(F)c12 [G-12a],< 500 nM

row,Compound,EC50
1,COc1cnc(-n2cnc(C)n2)c2[nH]cc(C(=O)C(=O)N3CCN(C4=NCCN4c4ccccc4)CC3)c12 [G-12b],< 500 nM
2,Cn1ncc(N2CCN(C(=O)C(=O)c3c[nH]c4c(-n5ccnn5)ncc(F)c34)CC2)c1-c1ccccc1 [G-13a],< 500 nM
3,COc1cnc(-n2cnc(C)n2)c2[nH]cc(C(=O)C(=O)N3CCN(c4cnn(C)c4-c4ccccc4)CC3)c12 [G-13b],< 500 nM
4,CN(C)c1cc(N2CCN(C(=O)C(=O)c3c[nH]c4c(-n5ccnn5)ncc(F)c34)CC2)c(-c2ccccc2)nn1 [G-14a],< 500 nM
5,COc1cnc(-n2cnc(C)n2)c2[nH]cc(C(=O)C(=O)N3CCN(c4cc(N(C)C)nnc4-c4ccccc4)CC3)c12 [G-14b],< 500 nM
6,O=C(C(=O)N1CCN(c2ccnnc2-c2ccccc2)CC1)c1c[nH]c2c(-n3ccnn3)ncc(F)c12 [G-15a],< 500 nM
7,COc1cnc(-n2cnc(C)n2)c2[nH]cc(C(=O)C(=O)N3CCN(c4ccnnc4-c4ccccc4)CC3)c12 [G-15b],< 500 nM
8,O=C(C(=O)N1CCN(c2cn(CCN3CCOCC3)nc2-c2ccccc2)CC1)c1c[nH]c2c(-n3ccnn3)ncc(F)c12 [G-16],< 500 nM
9,O=C(C(=O)N1CCC(C2=NCCN2c2ccccc2)CC1)c1c[nH]c2c(-n3ccnn3)ncc(F)c12 [G-17a],> 500 nM
10,COc1cnc(-n2cnc(C)n2)c2[nH]cc(C(=O)C(=O)N3CCC(C4=NCCN4c4ccccc4)CC3)c12 [G-17b],< 500 nM
11,O=C(C(=O)N1CCC(c2nccn2-c2ccccc2)CC1)c1c[nH]c2c(-n3ccnn3)ncc(F)c12 [G-18a],< 500 nM
12,COc1cnc(-n2cnc(C)n2)c2[nH]cc(C(=O)C(=O)N3CCC(c4nccn4-c4ccccc4)CC3)c12 [G-18b],< 500 nM
13,O=C(C(=O)N1CCN(c2cncnc2-c2ccccc2)CC1)c1c[nH]c2c(-n3ccnn3)ncc(F)c12 [G-19a],< 500 nM
14,COc1cnc(-n2cnc(C)n2)c2[nH]cc(C(=O)C(=O)N3CCN(c4cncnc4-c4ccccc4)CC3)c12 [G-19b],< 500 nM
15,CCOC(=O)Cn1cc(N2CCN(C(=O)C(=O)c3c[nH]c4c(-n5ccnn5)ncc(F)c34)CC2)c(-c2ccccc2)n1 [G-20],< 500 nM
16,COc1cnc(-n2cnc(C)n2)c2[nH]cc(C(=O)C(=O)N3CCN(c4cn(CC#N)nc4-c4ccccc4)CC3)c12 [G-21],< 500 nM
17,O=C(C(=O)N1CCN(c2cnnn2-c2ccccn2)CC1)c1c[nH]c2c(-n3ccnn3)ncc(F)c12 [G-22a],< 500 nM
18,COc1cnc(-n2cnc(C)n2)c2[nH]cc(C(=O)C(=O)N3CCN(c4cnnn4-c4ccccn4)CC3)c12 [G-22b],< 500 nM
19,COc1cnc(-n2cnc(C)n2)c2[nH]cc(C(=O)C(=O)N3CCN(c4nn(C)nc4-c4ccccc4)CC3)c12 [G-23],< 500 nM
20,O=C(C(=O)N1CCN(c2nn[nH]c2-c2ccccn2)CC1)c1c[nH]c2c(-n3ccnn3)ncc(F)c12 [G-24a],< 500 nM
21,COc1cnc(-n2cnc(C)n2)c2[nH]cc(C(=O)C(=O)N3CCN(c4nn[nH]c4-c4ccccn4)CC3)c12 [G-24b],< 500 nM
22,O=C(C(=O)N1CCN(c2nn[nH]c2-c2nccs2)CC1)c1c[nH]c2c(-n3ccnn3)ncc(F)c12 [G-25a],< 500 nM
23,COc1cnc(-n2cnc(C)n2)c2[nH]cc(C(=O)C(=O)N3CCN(c4nn[nH]c4-c4nccs4)CC3)c12 [G-25b],< 500 nM
24,CSc1nc(N2CCN(C(=O)C(=O)c3c[nH]c4c(-n5ccnn5)ncc(F)c34)CC2)n(-c2ccccc2)n1 [G-26a],< 500 nM
25,COc1cnc(-n2cnc(C)n2)c2[nH]cc(C(=O)C(=O)N3CCN(c4nc(SC)nn4-c4ccccc4)CC3)c12 [G-26b],< 500 nM
26,O=C(C(=O)N1CCN(c2ncnn2-c2ccccc2)CC1)c1c[nH]c2c(-n3ccnn3)ncc(F)c12 [G-27a],< 500 nM
